Results from patent US20210239681A1, “COMPOSITIONS AND METHODS FOR […] OF […]-BASED IMMUNOTHERAPEUTICS” (ADVAXIS, INC., priority 2018, published 2021).

Experiments:
Format in all cases: cell-based, human
[1] = tested on: E7 (11-20) specific T cells; assay: Initial THP-1 / T cell co-culture cytokine production (T cell culture with 6% E7 (11-20) specific T cells); design: IFNγ / TNF-α / IL-10 / IL-12p70 / IL-13 / IL-1β / IL-2 / IL-4 / IL-6 / IL-8: unit not given here
Description: (§1) Analysis Kits and Reagents: Analysis of cytokine concentrations in culture medium used the U-plex assay kits from Meso Scale Discovery. Expression of T cell receptors specific for E7 peptide bound to HLA-A*02:01 was detected using HLA-A*02:01/peptide tetramers from MBL International (Woburn, Mass.).
Infection of THP-1: The THP-1 cell line was infected with either ADXS11-001 or XFL7 by incubating 10^6 cells with dilutions of bacteria in a 1 mL volume of RPMI 1640 10% FBS. Incubation with bacteria was at 37° C., 5% CO2 for the indicated times, then extracellular bacteria were eliminated by washing and incubation in the presence of 50 μg/mL gentamicin for 1 hour at 37° C. After incubation with gentamicin the cells were washed again and resuspended to the desired cell concentration.
T cell cytokine expression analysis. An initial experiment using THP-1 as antigen presenting cells was performed using a T cell culture containing 6% E7 (11-20) specific T cells based upon staining with HLA-A*02:01/peptide tetramer. THP-1 cells were infected as described using two different concentrations of bacteria and then co-cultured with the T cells. Controls included uninfected THP-1 cells and THP-1 cells incubated with (exposed to) either the 9mer or 10mer peptide for one hour. After an overnight co-culture, medium was collected for analysis of cytokines.

PBMC = assay: Cytokine release by donor PBMC cultured with peptide; design: unit not given beside the values; settings: release on antigen
Description: Peripheral blood mononuclear cells (PBMCs) samples were collected from three human HLA-A*02:01 donors: 358, 213, and 224. The peripheral blood mononuclear cells (PBMCs) were cultured with one of two E7 peptides: […] (9mer or 1T; SEQ ID NO: 100) or […] (10mer or 2T; SEQ ID NO: 101). After 10 days culture, the PBMCs were tested for E7 peptide binding staining and cytokine release.

10mer specific T cells = assay: Co-culture of THP-1 with 10mer specific T cells, cytokine production; design: IFNγ / IL-10 / IL-13 / IL-1β / IL-2 / IL-5 / IL-6 / TNF-α: unit not given here; settings: for IFNγ production, with 10mer specific T cells: Listeria MOI of 10, optical density
Excerpt: as §1
(§2) There were several possible explanations for the muted response with THP-1 cells infected with ADSX11: including failure of THP-1 cells to process the 10mer epitope from full length E7 protein, failure of the THP-1 cells to present the processed 10mer E7 peptide on HLA-A*02:01, insufficient incubation of the infected cells to allow synthesis of the E7 protein and accumulation of the MHC/peptide complex on the cell surface, and/or an inhibitory effect of gentamicin. A culture of T cells specific for the 9mer epitope was used as well as a new culture of 10mer specific T cells. The THP-1 cells were infected as before with XFL7 or ADXS11-001 at an MOI of 10. After treatment with gentamicin for one hour, the cells were cultured overnight in the absence of gentamicin. The next day the infected cells were collected and co-cultured with 9mer or 10mer specific T cells. These co-cultures were set up in standard X-VIVO 15 and X-VIVO 15 without gentamicin or phenol red. The co-cultures were incubated overnight before collecting medium for cytokine analysis. The medium was tested for IFNγ concentrations and optical density. […] In addition, the 10mer specific T cells recognized ADXS11-001 infected THP-1 when there was no gentamicin in the medium.
(§3) To further explore the importance of the overnight incubation of infected THP-1, THP-1 cells infected overnight were compared to THP-1 cells infected for 2 hours. T cells specific for 9mer and 10mer peptides were co-cultured with each of the THP-1 cells and with uninfected or peptide exposed THP-1. As before, medium was collected after an overnight co-culture and cytokines were measured.
(§4) Optimization of infection time required for E7 presentation. THP-1 infected and cultured overnight compared to THP-1 infected for 2 hours and used after gentamicin treatment. Both 9-mer specific T cells and 10-mer specific T cells used. Assays were performed using X-VIVO 15 medium without gentamicin. The following cytokines were measured: IFNγ, IL-1β, IL-2, IL-10, IL-12p70, IL-13, IL-5, IL-6, TNFα.

9mer specific T cells = assay: Co-culture of THP-1 with 9mer specific T cells, cytokine production; design: IFNγ / IL-10 / IL-12p70 / IL-13 / IL-1β / IL-2 / IL-5 / IL-6 / TNF-α: unit not given here; settings: for IFNγ production, with 9mer specific T cells: Listeria MOI of 10, optical density
Excerpt: as §1, §2, §3, §4

[2] = T cells and THP-1 incubated with peptide one hour, overnight co-culture
[3] = 10mer T cells + peptide exposed THP-1, overnight co-culture
[4] = 9mer T cells + peptide exposed THP-1, overnight co-culture

YMLDLQPETT [10mer]
IFNγ [1, 2]: 17140.7
IL-1β [1, 2]: 7.0
IL-2 [1, 2]: 315.2
IL-4 [1, 2]: 11.9
IL-6 [1, 2]: 19.6
IL-8 [1, 2]: 6099.7
IL-10 [1, 2]: 34.0
IL-12p70 [1, 2]: 7.4
IL-13 [1, 2]: 508.4
TNF-α [1, 2]: 1192.3
T cell cytokine response to peptide presented by THP-1 ([1]; relative to T cells co-cultured with control or uninfected THP-1 cells): elevated levels of IFNγ, IL-13, IL-2, IL-8 and TNFα
IFNγ Mean (PBMC; donor 213 PBMC cultured with 1T peptide): 86.6
IFNγ Mean (PBMC; donor 358 PBMC stimulated with 1T): 183.9
IFNγ Mean (PBMC; donor 358 PBMC stimulated with 2T): 359.8
IFNγ production, with 10mer specific T cells (10mer specific T cells; 50 μg/mL gentamicin): 0.226
IFNγ (10mer specific T cells; [3]): 23328
IL-1β (10mer specific T cells; [3]): 3
IL-2 (10mer specific T cells; [3]): 452
IL-5 (10mer specific T cells; [3]): 1
IL-6 (10mer specific T cells; [3]): 31
IL-10 (10mer specific T cells; [3]): 12
IL-12p70 (10mer specific T cells; [3]): <LLOD
IL-13 (10mer specific T cells; [3]): 23
TNF-α (10mer specific T cells; [3]): 460
IFNγ production, with 10mer specific T cells (10mer specific T cells; Without gentamicin): 0.200
IFNγ production, with 9mer specific T cells (9mer specific T cells; 50 μg/mL gentamicin): 0.075
IFNγ (9mer specific T cells; [4]): 112
IL-1β (9mer specific T cells; [4]): <LLOD
IL-2 (9mer specific T cells; [4]): 3
IL-5 (9mer specific T cells; [4]): <LLOD
IL-6 (9mer specific T cells; [4]): 0
IL-10 (9mer specific T cells; [4]): <LLOD
IL-12p70 (9mer specific T cells; [4]): 0
IL-13 (9mer specific T cells; [4]): <LLOD
TNF-α (9mer specific T cells; [4]): 2
IFNγ production, with 9mer specific T cells (9mer specific T cells; Without gentamicin): 0.066
